What all share (assay): NCI tumour cell line growth inhibition, 48 h
Assay [1] relates to RPMI-8226 leukemia.
Assay [2] concerns MOLT-4 leukemia.
The subject of assay [3] is A498 renal.
The test system of assay [4] is SF-295 CNS.
Assay [5] concerns UACC-62 melanoma.
Assay [6] relates to MALME-3M melanoma.
The test system of assay [7] is K-562 leukemia.
Assay [8] has as its system DU-145 prostate.
Assay [9] concerns PC-3 prostate.
For assay [10], the system named is HCT-116 colon.

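Interpolation was linear, between the two tested concentrations surrounding the appropriate level; five concentrations were tested over 48 hours in 96-well plates. At the GI50, growth is halved. TGI: total growth inhibition.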 Some results are limits rather than exact numbers.

With `CCCCCCNC(=O)Oc1ccc(/C(=C(\C)c2ccccc2)c2ccc(OCCN(CC)CC)cc2)cc1`, the GI50 was 2.32 µM in [1]; 1.78 µM in assay [2]; 6.93 µM in [3]; 2.11 µM in assay [4]; 2.05 µM in assay [5]; 3.59 µM in assay [6]. The GI50 in assay [7] is 1.36 µM; in assay [8], 7.45 µM; in [9] it was 2.81 µM; in assay [10] it was 2.08 µM. The TGI in assay [1] came to 9.71 µM; in [2], 7.79 µM; in assay [3] it was 13.6 µM; in [4], 7.38 µM; in assay [5] it was 7.4 µM; in assay [6], 10.1 µM. Besides, the TGI was 5.31 µM in assay [7], 14.6 µM in assay [8], 9.21 µM in [9] and 7.39 µM in assay [10].

`Cc1cc(S(=O)(=O)Nc2nc3cc(Cl)ccc3o2)c(SCc2ccccc2)cc1Cl`: the GI50 in assay [1] was 20.3 µM; in [2], 37.8 µM; in assay [3], 18.8 µM; in assay [4], 18.7 µM; in assay [5], 19.2 µM; in [6], 19.3 µM. Besides, the GI50 in assay [7] was 46.2 µM; in assay [8], 22.4 µM; in assay [9], 21.5 µM; in [10], 18.7 µM. In addition, the TGI in assay [1] is 66.2 µM; in [2], over 100 µM; in assay [3], 35.5 µM; in assay [4], 46.1 µM; in assay [5], 41.3 µM; in assay [6], 48.5 µM. Besides, the TGI in assay [7] was over 100 µM; in [8], 45.9 µM; in assay [9] it was 43.5 µM; in assay [10] it was 42.7 µM.

With `COc1ccc(NC(=O)/C=C(C)/C=C/C=C(C)\C=C\C2=C(C)CCCC2(C)C)cc1`, the GI50 in assay [1] was 1.71 µM; in assay [2] it was 55.1 µM; in assay [3], over 100 µM; in assay [4], 35.7 µM; in assay [5], 24.6 µM; in [6] it was 41.2 µM. For the same compound, the GI50 in [7] is 30.3 µM; in assay [8], over 100 µM; in [9] it was 72.6 µM; in [10], 28.6 µM. In addition, the TGI in assay [1] was 64.4 µM; in assay [2] it was over 100 µM; in [3] it was over 100 µM; in assay [4], over 100 µM; in [5] it was over 100 µM; in assay [6], over 100 µM. In addition, the TGI in [7], in assay [8], in assay [9] and in [10] was over 100 µM in each case.

With `O=C(Nc1cc(-c2cccnc2)nc(NCCCN2CCOCC2)n1)c1cc(Br)cc(C(F)(F)F)c1`, the GI50 is 3.15 µM in [1]; 3.63 µM in assay [2]; 3.43 µM in assay [3]; 1.94 µM in assay [4]; 1.94 µM in [5]; 1.76 µM in [6]. Besides, the GI50 in assay [7] is 2.8 µM; in assay [8], 6.7 µM; in assay [9], 4.03 µM; in assay [10], 2.09 µM. In addition, the TGI in assay [1] came out at 9.69 µM; in [2], 13.1 µM; in assay [3], 13.4 µM; in assay [4], 3.93 µM; in assay [5], 4.38 µM; in assay [6], 3.58 µM. The TGI in assay [7] worked out at 21.7 µM; in assay [8] it was 19.1 µM; in assay [9], 15.7 µM; in [10], 4.81 µM.

As for `COc1cc(/C=N\O)nc(-c2ccccn2)c1`, the TGI in [1] was over 76.8 µM; in assay [2] it was over 100 µM; in assay [3], 9.22 µM; in assay [4], over 100 µM; in [5], 8.28 µM; in assay [6] it was over 100 µM. Besides, the TGI in assay [7], in [8], in assay [9] and in assay [10] was over 100 µM throughout.

With `CCOc1cc(C(C)(C)C)ccc1C1=N[C@@](C)(c2ccc(Cl)cc2)[C@@](C)(c2ccc(Cl)cc2)N1C(=O)N1CCN(CCS(C)(=O)=O)CC1`, the GI50 in [1] is 2.49 µM; in assay [2], 0.751 µM; in [3] it was 0.655 µM; in assay [4], 3.15 µM; in [5], 0.793 µM; in assay [6], 0.535 µM. Further, the GI50 in [7] is 3.9 µM; in assay [8], 4.85 µM; in assay [9], 2.01 µM; in [10], 0.804 µM. Moreover, the TGI in [1] came to 6.77 µM; in assay [2], 3.96 µM; in assay [3], 5.27 µM; in assay [4], 10.5 µM; in [5], 3 µM; in assay [6] it was 6.07 µM. Also, the TGI was determined as 21.7 µM in [7], 16.1 µM in assay [8], 6.25 µM in assay [9] and 4.73 µM in assay [10].

For the compound `O=[N+]([O-])c1cc(F)c2cccnc2c1O`, the GI50 in [1] is 4.05 µM; in assay [2], 2.43 µM; in assay [3], 6.84 µM; in [4] it was 3.77 µM; in assay [5] it was 11 µM; in assay [6] it was 3.89 µM. Also, the GI50 in assay [8] was 6.28 µM; in assay [9], 4.47 µM; in [10], 6.93 µM. Also, the TGI in assay [1] was found to be 24.3 µM; in assay [2] it was 11 µM; in assay [3], 42.4 µM; in assay [4], 86.6 µM; in [5] it was 55.6 µM; in assay [6], 28.8 µM. For the same compound, the TGI in assay [8], in [9] and in assay [10] was over 100 µM each time.

For the compound `Cc1sc2ncn(Cc3ccc(Cl)c(Cl)c3)c(=O)c2c1C`, the GI50 in assay [1] was 12.2 µM; in assay [2] it was 79.3 µM; in assay [3], 35.7 µM; in assay [4] it was 3.85 µM; in assay [5], 13.2 µM; in assay [7] it was 5.4 µM. The GI50 in assay [8] was 44.3 µM; in assay [9] it was 20.1 µM; in assay [10] it was 17.4 µM. The TGI is over 100 µM in assay [1]; over 100 µM in assay [2]; over 100 µM in assay [3]; 22.7 µM in [4]; over 100 µM in [5]; over 100 µM in assay [7]. Moreover, the TGI in [8] was over 100 µM; in assay [9], over 100 µM; in assay [10], 44.8 µM.

For `COC(=O)[C@]12CC[C@@H](C)[C@H](C)[C@@H]1C1=CC[C@@H]3[C@@]4(C)CC(=O)[C@H](OC(=O)c5ccco5)[C@@]5(C)COC(=C45)C[C@@]3(C)[C@]1(C)CC2`, the GI50 in assay [1] is 0.584 µM; in [2], 0.669 µM; in assay [3] it was 13.3 µM; in assay [4], 28.3 µM; in [6] it was 0.556 µM; in [7], 0.413 µM. Besides, the GI50 is 9.04 µM in assay [8], 0.592 µM in assay [9] and 0.337 µM in assay [10]. For the same compound, the TGI in [1], in [2], in [3], in assay [4], in assay [6] and in assay [7] was over 100 µM each time. The TGI in [8], in assay [9] and in assay [10] was over 100 µM each time.

As for `O=C1c2ccn(CCCCN3CCC(O)CC3)c2C(=O)c2c1c(O)c1ccccc1c2O`, the GI50 in assay [3] was 23.7 µM; in assay [4] it was 3.25 µM; in [5], 2.13 µM; in assay [6] it was 16.5 µM; in [7], 1.77 µM; in assay [8], 7.98 µM. Moreover, the GI50 was 1.35 µM in assay [9] and 1.84 µM in assay [10]. Besides, the TGI in assay [3] is 55.4 µM; in [4], 9.69 µM; in [5] it was 5.36 µM; in assay [6] it was 41.8 µM; in assay [7] it was over 100 µM; in assay [9], 3.16 µM.

For `C#Cc1cc2c(N)c(C(=O)c3cc(OC)c(OC)c(OC)c3)[nH]c2cc1OC`, the GI50 in assay [1] is 1.84 µM; in assay [2], 0.903 µM; in [3], 0.487 µM; in assay [5] it was 2.77 µM; in assay [6] it was 0.434 µM; in [7] it was 0.462 µM. Further, the values for the GI50 in assay [8], in assay [9] and in assay [10] were 1.2 µM, 0.45 µM and 0.431 µM, respectively. Also, the TGI in [1] is 20 µM; in assay [2], 95.2 µM; in assay [3] it was 16.9 µM; in assay [5], over 100 µM; in [6], over 100 µM; in assay [7], over 100 µM. In addition, the TGI in [8], in assay [9] and in assay [10] was over 100 µM throughout.

As for `Cc1ncc([N+](=O)[O-])n1CCNC(=O)CCCCCn1ccnc1[N+](=O)[O-]`, the TGI in [2], in assay [3], in assay [4], in assay [5], in assay [6] and in assay [7] was over 100 µM in each case. In addition, the TGI in assay [8], in assay [9] and in assay [10] was over 100 µM in each case.

Values taken from PubChem BioAssay (NCI).
